Laboratory results as given in patent US8901118B2, “Compounds and methods for kinase modulation, and indications therefor” (Plexxikon Inc., priority 2010, dated 2014).

Key:
Fms kinase = Fms kinase (Homo sapiens, UniProt P07333); assay: Fms kinase biochemical activity assay (AlphaScreen, biotin-(E4Y)10 phosphorylation); conditions: 100 μM ATP; read-out: Biochemical Inhibition IC50 Fms
How it was run: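 AlphaScreen read-out (PY20 acceptor, streptavidin donor beads, EDTA stop) of biotin-(E4Y)10 phosphorylation, with IC50 taken from the concentration–signal curve. Reaction: 30 nM substrate, 100 μM ATP, 1 ng/well Fms, Hepes pH 7.5 with Mg2+/Mn2+, 5% DMSO, 20 min at 30 °C.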

[1] = Relative solubility by turbidity in aqueous buffers (pH 1.5, 4.5, 6.8, 7.4); format: physicochemical; conditions: for turbidity threshold (L, M, H) 1.4: pH 1.5 (SGF); for turbidity threshold (L, M, H) 4.5: pH 4.5 (SIF); for turbidity threshold (L, M, H) 6.8: pH 6.8 (SIF); for turbidity threshold (L, M, H) 7.4: pH 7.4 (HEPES)
How it was run: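 Reported value: concentration at which optical density at 490, 535 and 650 nm passes 0.01, taken as the mean of the three wavelengths. Buffers were 0.5M NaCl pH 1.5, 0.05M NaH2PO4 pH 4.5 or 6.8, and 10 mM HEPES/150 mM NaCl pH 7.4, each receiving serial 1:1 DMSO dilutions of a 25 mM stock.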

CYP1A2 = molecular target: T1, CYP1A2 (Homo sapiens, UniProt P05177); assay: CYP1A2 inhibition (fluorescent substrate CEC); format: in vitro ADME; conditions: read-out: Cyp IC50 1A2
T1 sequence (P05177 1-516): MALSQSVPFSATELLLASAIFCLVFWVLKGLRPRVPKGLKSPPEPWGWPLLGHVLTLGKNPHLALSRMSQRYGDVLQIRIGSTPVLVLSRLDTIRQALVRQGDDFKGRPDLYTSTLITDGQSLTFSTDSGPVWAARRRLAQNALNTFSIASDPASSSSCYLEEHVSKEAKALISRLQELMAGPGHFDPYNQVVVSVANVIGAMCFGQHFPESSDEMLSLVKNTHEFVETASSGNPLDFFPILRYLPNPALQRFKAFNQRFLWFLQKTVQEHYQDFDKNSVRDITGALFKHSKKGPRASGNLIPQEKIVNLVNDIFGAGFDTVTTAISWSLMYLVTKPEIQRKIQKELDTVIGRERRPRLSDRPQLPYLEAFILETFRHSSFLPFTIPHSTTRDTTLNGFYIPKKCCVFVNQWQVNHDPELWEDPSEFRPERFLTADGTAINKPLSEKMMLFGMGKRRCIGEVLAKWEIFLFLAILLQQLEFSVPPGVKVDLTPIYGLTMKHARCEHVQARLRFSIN
How it was run: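 Test compound titrated 1:1 across ten concentrations; metabolite fluorescence measured after 37 °C incubation of 15 min (CYP1A2), 30 min (CYP2C19, CYP2D6) or 45 min (CYP2C9). IC50 from signal versus concentration.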

Chain of Fms kinase (P07333 20-972): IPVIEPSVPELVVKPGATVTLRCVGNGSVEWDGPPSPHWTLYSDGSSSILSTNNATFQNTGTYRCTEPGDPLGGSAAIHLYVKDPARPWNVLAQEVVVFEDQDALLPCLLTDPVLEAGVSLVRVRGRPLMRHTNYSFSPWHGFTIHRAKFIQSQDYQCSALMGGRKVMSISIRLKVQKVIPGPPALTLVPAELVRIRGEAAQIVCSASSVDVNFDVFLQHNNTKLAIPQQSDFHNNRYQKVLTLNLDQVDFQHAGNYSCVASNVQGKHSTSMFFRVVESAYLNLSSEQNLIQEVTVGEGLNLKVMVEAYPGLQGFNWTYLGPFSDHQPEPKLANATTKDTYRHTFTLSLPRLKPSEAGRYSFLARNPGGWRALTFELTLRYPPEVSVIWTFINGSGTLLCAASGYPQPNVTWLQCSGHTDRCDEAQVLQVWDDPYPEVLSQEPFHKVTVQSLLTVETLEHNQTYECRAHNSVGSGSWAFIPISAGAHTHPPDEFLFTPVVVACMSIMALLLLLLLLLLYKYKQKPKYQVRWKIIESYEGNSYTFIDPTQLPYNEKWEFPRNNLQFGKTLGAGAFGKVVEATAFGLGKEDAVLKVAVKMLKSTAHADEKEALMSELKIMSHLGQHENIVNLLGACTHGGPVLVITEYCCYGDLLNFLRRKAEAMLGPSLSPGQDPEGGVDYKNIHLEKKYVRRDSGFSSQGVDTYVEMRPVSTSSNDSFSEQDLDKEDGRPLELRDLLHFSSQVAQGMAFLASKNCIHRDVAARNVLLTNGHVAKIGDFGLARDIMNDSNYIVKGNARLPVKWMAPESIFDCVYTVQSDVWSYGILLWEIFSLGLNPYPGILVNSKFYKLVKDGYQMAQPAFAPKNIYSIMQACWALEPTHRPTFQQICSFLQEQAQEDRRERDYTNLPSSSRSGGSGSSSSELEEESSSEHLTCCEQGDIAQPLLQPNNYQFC

Structure (SMILES)	IC50 (Fms kinase)	turbidity threshold (L, M, H) 1.4 [1]	turbidity threshold (L, M, H) 4.5 [1]	turbidity threshold (L, M, H) 6.8 [1]	turbidity threshold (L, M, H) 7.4 [1]	IC50 (CYP1A2)
COc1ccc(Nc2ccc(C(=O)c3c[nH]c4ncnc(N5CCOCC5)c34)c(F)n2)cn1 [Compound P-4070, [2-fluoro-6-[(6-methoxy-3-pyridyl)amino]-3-pyridyl]-(4-morpholino-7H-pyrrolo[2,3-d]pyrimidin-5-yl)methanone]	> 1 µM	H (high solubility if the threshold concentration is >250 μm)	M (moderate solubility if the threshold concentration is 31.3 μM to 250 μM)	M (moderate solubility if the threshold concentration is 31.3 μM to 250 μM)	M (moderate solubility if the threshold concentration is 31.3 μM to 250 μM)	> 10 µM
COc1ccc(Nc2ccc(C(=O)c3c[nH]c4ncnc(NCc5ccc(C(F)(F)F)nc5)c34)c(F)n2)cn1 [Compound P-4071, [2-fluoro-6-[(6-methoxy-3-pyridyl)amino]-3-pyridyl]-[4-[[6-(trifluoromethyl)-3-pyridyl]methylamino]-7H-pyrrolo[2,3-d]pyrimidin-5-yl]methanone]	< 1 µM	M (moderate solubility if the threshold concentration is 31.3 μM to 250 μM)	M (moderate solubility if the threshold concentration is 31.3 μM to 250 μM)	M (moderate solubility if the threshold concentration is 31.3 μM to 250 μM)	M (moderate solubility if the threshold concentration is 31.3 μM to 250 μM)	> 10 µM
COc1ccc(Nc2ccc(C(=O)c3c[nH]c4ncnc(N[C@@H](C)c5ccc(F)cc5)c34)c(F)n2)cn1 [Compound P-4072, [2-fluoro-6-[(6-methoxy-3-pyridyl)amino]-3-pyridyl]-[4-[[(1S)-1-(4-fluorophenyl)ethyl]amino]-7H-pyrrolo[2,3-d]pyrimidin-5-yl]methanone]	< 0.1 µM	M (moderate solubility if the threshold concentration is 31.3 μM to 250 μM)	L (low solubility if the threshold concentration is <31.3 μM)	L (low solubility if the threshold concentration is <31.3 μM)	L (low solubility if the threshold concentration is <31.3 μM)	> 10 µM
COc1ccc(Nc2ccc(C(=O)c3c[nH]c4ncnc(NCC5CCCO5)c34)c(F)n2)cn1 (stereo not drawn) [Compound P-4073, [2-fluoro-6-[(6-methoxy-3-pyridyl)amino]-3-pyridyl]-[4-(tetrahydrofuran-2-ylmethylamino)-7H-pyrrolo[2,3-d]pyrimidin-5-yl]methanone]	< 0.1 µM	M (moderate solubility if the threshold concentration is 31.3 μM to 250 μM)	L (low solubility if the threshold concentration is <31.3 μM)	L (low solubility if the threshold concentration is <31.3 μM)	L (low solubility if the threshold concentration is <31.3 μM)	> 10 µM
CCN1CCC(Nc2ncnc3[nH]cc(C(=O)c4ccc(Nc5ccc(OC)nc5)nc4F)c23)CC1 [Compound P-4074, [4-[(1-ethyl-4-piperidyl)amino]-7H-pyrrolo[2,3-d]pyrimidin-5-yl]-[2-fluoro-6-[(6-methoxy-3-pyridyl)amino]-3-pyridyl]methanone]	< 0.1 µM	H (high solubility if the threshold concentration is >250 μm)	M (moderate solubility if the threshold concentration is 31.3 μM to 250 μM)	M (moderate solubility if the threshold concentration is 31.3 μM to 250 μM)	M (moderate solubility if the threshold concentration is 31.3 μM to 250 μM)	> 10 µM
COc1ccc(Nc2ccc(C(=O)c3c[nH]c4ncnc(NC5CCCC5)c34)c(F)n2)cn1 [Compound P-4075, [4-(cyclopentylamino)-7H-pyrrolo[2,3-d]pyrimidin-5-yl]-[2-fluoro-6-[(6-methoxy-3-pyridyl)amino]-3-pyridyl]methanone]	< 0.01 µM	M (moderate solubility if the threshold concentration is 31.3 μM to 250 μM)	L (low solubility if the threshold concentration is <31.3 μM)	L (low solubility if the threshold concentration is <31.3 μM)	L (low solubility if the threshold concentration is <31.3 μM)	> 10 µM
COc1ccc(Nc2ccc(C(=O)c3c[nH]c4ncnc(NC5CCC5)c34)c(F)n2)cn1 [Compound P-4076, [4-(cyclobutylamino)-7H-pyrrolo[2,3-d]pyrimidin-5-yl]-[2-fluoro-6-[(6-methoxy-3-pyridyl)amino]-3-pyridyl]methanone]	< 0.01 µM	M (moderate solubility if the threshold concentration is 31.3 μM to 250 μM)	M (moderate solubility if the threshold concentration is 31.3 μM to 250 μM)	M (moderate solubility if the threshold concentration is 31.3 μM to 250 μM)	L (low solubility if the threshold concentration is <31.3 μM)	> 10 µM
CCC(CC)Nc1ncnc2[nH]cc(C(=O)c3ccc(Nc4ccc(OC)nc4)nc3F)c12 [Compound P-4077, [4-(1-ethylpropylamino)-7H-pyrrolo[2,3-d]pyrimidin-5-yl]-[2-fluoro-6-[(6-methoxy-3-pyridyl)amino]-3-pyridyl]methanone]	< 0.1 µM	M (moderate solubility if the threshold concentration is 31.3 μM to 250 μM)	L (low solubility if the threshold concentration is <31.3 μM)	L (low solubility if the threshold concentration is <31.3 μM)	L (low solubility if the threshold concentration is <31.3 μM)	5 to 10 µM
CCC(C)Nc1ncnc2[nH]cc(C(=O)c3ccc(Nc4ccc(OC)nc4)nc3F)c12 (stereo not drawn) [Compound P-4078, [2-fluoro-6-[(6-methoxy-3-pyridyl)amino]-3-pyridyl]-[4-(sec-butylamino)-7H-pyrrolo[2,3-d]pyrimidin-5-yl]methanone]	< 0.01 µM	M (moderate solubility if the threshold concentration is 31.3 μM to 250 μM)	L (low solubility if the threshold concentration is <31.3 μM)	L (low solubility if the threshold concentration is <31.3 μM)	L (low solubility if the threshold concentration is <31.3 μM)	5 to 10 µM
COCCCNc1ncnc2[nH]cc(C(=O)c3ccc(Nc4ccc(OC)nc4)nc3F)c12 [Compound P-4079, [2-fluoro-6-[(6-methoxy-3-pyridyl)amino]-3-pyridyl]-[4-(3-methoxypropylamino)-7H-pyrrolo[2,3-d]pyrimidin-5-yl]methanone]	< 0.01 µM	H (high solubility if the threshold concentration is >250 μm)	M (moderate solubility if the threshold concentration is 31.3 μM to 250 μM)	M (moderate solubility if the threshold concentration is 31.3 μM to 250 μM)	M (moderate solubility if the threshold concentration is 31.3 μM to 250 μM)	> 10 µM
